Measured values reported in ChEMBL document CHEMBL3046079, “Synthesis, herbicidal activity, and mode of action of IR 5790” (J Agric Food Chem, 2001).
Values after ≈ are worked out from the molar mass of the structure shown.

Key:
Persicaria maculosa [1] = assay: Post-emergence herbicidal activity against Persicaria maculosa assessed as injury at 50 g/ha applied at 15 days post-sowing measured after 15 days relative to control; assay type: functional
Capsella bursa-pastoris = assay: Post-emergence herbicidal activity against Capsella bursa-pastoris assessed as injury at 150 g/ha applied at 15 days post-sowing measured after 15 days relative to control; assay type: functional
Echinochloa crus-galli [2] = assay: Post-emergence herbicidal activity against Echinochloa crus-galli (barnyard grass) assessed as injury at 15 g/ha applied at 15 days post-sowing measured after 15 days relative to control; assay type: functional
Veronica persica = assay: Post-emergence herbicidal activity against Veronica persica assessed as injury at 50 g/ha applied at 15 days post-sowing measured after 15 days relative to control; assay type: functional
Triticum aestivum = assay: Phytotoxicity against Triticum aestivum (wheat) assessed as injury at 5 g/ha applied as post-emergent treatment at 15 days post-sowing measured after 15 days relative to control; assay type: organism-based; settings: in vivo, other, 360 h
Chenopodium album [3] = assay: Pre-emergence herbicidal activity against Chenopodium album assessed as injury at 50 g/ha applied at 24 hr post-sowing measured after 28 days relative to control; assay type: functional
Stellaria media [4] = assay: Pre-emergence herbicidal activity against Stellaria media assessed as injury at 150 g/ha applied at 24 hr post-sowing measured after 28 days relative to control; assay type: functional
Brassica napus [5] = assay: Phytotoxicity against Brassica napus (oilseed rape) assessed as injury at 50 g/ha applied as pre-emergent treatment at 24 hr post-sowing measured after 28 days relative to control; assay type: organism-based; settings: in vivo, other, 672 h
Glycine max [6] = assay: Phytotoxicity against Glycine max (soybean) assessed as injury at 15 g/ha applied as post-emergent treatment at 15 days post-sowing measured after 15 days relative to control; assay type: organism-based; settings: in vivo, other, 360 h
Brassica napus [7] = assay: Phytotoxicity against Brassica napus (oilseed rape) assessed as injury at 150 g/ha applied as pre-emergent treatment at 24 hr post-sowing measured after 28 days relative to control; assay type: organism-based; settings: in vivo, other, 672 h
Sorghum bicolor = assay: Post-emergence herbicidal activity against Sorghum bicolor assessed as injury at 15 g/ha applied at 15 days post-sowing measured after 15 days relative to control; assay type: functional
Galium aparine [8] = assay: Post-emergence herbicidal activity against Galium aparine assessed as injury at 150 g/ha applied at 15 days post-sowing measured after 15 days relative to control; assay type: functional
Stellaria media [9] = assay: Post-emergence herbicidal activity against Stellaria media assessed as injury at 15 g/ha applied at 15 days post-sowing measured after 15 days relative to control; assay type: functional
Glycine max [10] = assay: Phytotoxicity against Glycine max (soybean) assessed as injury at 50 g/ha applied as post-emergent treatment at 15 days post-sowing measured after 15 days relative to control; assay type: organism-based; settings: in vivo, other, 360 h
Matricaria chamomilla = assay: Pre-emergence herbicidal activity against Matricaria chamomilla assessed as injury at 50 g/ha applied at 24 hr post-sowing measured after 28 days relative to control; assay type: functional
Solanum nigrum [11] = assay: Post-emergence herbicidal activity against Solanum nigrum (black nightshade) assessed as injury at 5 g/ha applied at 15 days post-sowing measured after 15 days relative to control; assay type: functional
Galium aparine [12] = assay: Pre-emergence herbicidal activity against Galium aparine assessed as injury at 150 g/ha applied at 24 hr post-sowing measured after 28 days relative to control; assay type: functional
Oryza sativa [13] = assay: Phytotoxicity against Oryza sativa (rice) assessed as injury at 150 g/ha applied as post-emergent treatment at 15 days post-sowing measured after 15 days relative to control; assay type: organism-based; settings: in vivo, other, 360 h
Ipomoea purpurea = assay: Post-emergence herbicidal activity against Ipomoea purpurea (common morning-glory) assessed as injury at 150 g/ha applied at 15 days post-sowing measured after 15 days relative to control; assay type: functional
Solanum nigrum [14] = assay: Post-emergence herbicidal activity against Solanum nigrum (black nightshade) assessed as injury at 15 g/ha applied at 15 days post-sowing measured after 15 days relative to control; assay type: functional
Galium aparine [15] = assay: Post-emergence herbicidal activity against Galium aparine assessed as injury at 50 g/ha applied at 15 days post-sowing measured after 15 days relative to control; assay type: functional
Oryza sativa [16] = assay: Phytotoxicity against Oryza sativa (rice) assessed as injury at 150 g/ha applied as pre-emergent treatment at 24 hr post-sowing measured after 28 days relative to control; assay type: organism-based; settings: in vivo, other, 672 h
Echinochloa crus-galli [17] = assay: Post-emergence herbicidal activity against Echinochloa crus-galli (barnyard grass) assessed as injury at 50 g/ha applied at 15 days post-sowing measured after 15 days relative to control; assay type: functional
Zea mays = assay: Phytotoxicity against Zea mays (maize) assessed as injury at 150 g/ha applied as pre-emergent treatment at 24 hr post-sowing measured after 28 days relative to control; assay type: organism-based; settings: in vivo, other, 672 h
Chenopodium album [18] = assay: Post-emergence herbicidal activity against Chenopodium album assessed as injury at 5 g/ha applied at 15 days post-sowing measured after 15 days relative to control; assay type: functional
Persicaria maculosa [19] = assay: Pre-emergence herbicidal activity against Persicaria maculosa assessed as injury at 50 g/ha applied at 24 hr post-sowing measured after 28 days relative to control; assay type: functional
Xanthium strumarium [20] = assay: Pre-emergence herbicidal activity against Xanthium strumarium (cocklebur) assessed as injury at 50 g/ha applied at 24 hr post-sowing measured after 28 days relative to control; assay type: functional
Beta vulgaris = assay: Phytotoxicity against Beta vulgaris assessed as injury at 50 g/ha applied as pre-emergent treatment at 24 hr post-sowing measured after 28 days relative to control; assay type: organism-based; settings: in vivo, other, 672 h
Calystegia sepium [21] = assay: Pre-emergence herbicidal activity against Calystegia sepium assessed as injury at 150 g/ha applied at 24 hr post-sowing measured after 28 days relative to control; assay type: functional
Portulaca oleracea [22] = assay: Post-emergence herbicidal activity against Portulaca oleracea assessed as injury at 150 g/ha applied at 15 days post-sowing measured after 15 days relative to control; assay type: functional
Alopecurus myosuroides = assay: Post-emergence herbicidal activity against Alopecurus myosuroides assessed as injury at 5 g/ha applied at 15 days post-sowing measured after 15 days relative to control; assay type: functional
Portulaca oleracea [23] = assay: Pre-emergence herbicidal activity against Portulaca oleracea assessed as injury at 50 g/ha applied at 24 hr post-sowing measured after 28 days relative to control; assay type: functional
Panicum dichotomiflorum = assay: Pre-emergence herbicidal activity against Panicum dichotomiflorum assessed as injury at 150 g/ha applied at 24 hr post-sowing measured after 28 days relative to control; assay type: functional
[24] = Aqueous solubility of the compound; assay type: physicochemical; settings: water
Calystegia sepium [25] = assay: Post-emergence herbicidal activity against Calystegia sepium assessed as injury at 5 g/ha applied at 15 days post-sowing measured after 15 days relative to control; assay type: functional
Ammi majus [26] = assay: Post-emergence herbicidal activity against Amni maius assessed as injury at 150 g/ha applied at 15 days post-sowing measured after 15 days relative to control; assay type: functional
Xanthium strumarium [27] = assay: Post-emergence herbicidal activity against Xanthium strumarium (cocklebur) assessed as injury at 50 g/ha applied at 15 days post-sowing measured after 15 days relative to control; assay type: functional
Ammi majus [28] = assay: Pre-emergence herbicidal activity against Amni maius assessed as injury at 50 g/ha applied at 24 hr post-sowing measured after 28 days relative to control; assay type: functional
Portulaca oleracea [29] = assay: Post-emergence herbicidal activity against Portulaca oleracea assessed as injury at 15 g/ha applied at 15 days post-sowing measured after 15 days relative to control; assay type: functional

`C#CCOc1cc(-n2nc(C(C)(C)C)sc2=O)c(Cl)cc1Cl` gave an Activity (Persicaria maculosa [1]) of 90%, an Activity (Capsella bursa-pastoris) of 50% and an Activity (Echinochloa crus-galli [2]) of 0%. It also gave an Activity (Veronica persica) of 0%, an Activity (Triticum aestivum) of 0% and an Activity (Chenopodium album [3]) of 70%. The Activity (Stellaria media [4]) was 30%, the Activity (Brassica napus [5]) was 0% and the Activity (Glycine max [6]) was 0%. The Activity (Brassica napus [7]) was 0%, the Activity (Sorghum bicolor) was 10% and the Activity (Galium aparine [8]) was 50%. The Activity (Stellaria media [9]) was 0%, the Activity (Glycine max [10]) was 10% and the Activity (Matricaria chamomilla) was 0%. For the same molecule, the Activity (Solanum nigrum [11]) was 0%, the Activity (Galium aparine [12]) was 0% and the Activity (Oryza sativa [13]) was 0%. The Activity (Ipomoea purpurea) was 90%, the Activity (Solanum nigrum [14]) was 10% and the Activity (Galium aparine [15]) was 30%. It also gave an Activity (Oryza sativa [16]) of 0%, an Activity (Echinochloa crus-galli [17]) of 0% and an Activity (Zea mays) of 0%. The Activity (Chenopodium album [18]) was 10%, the Activity (Persicaria maculosa [19]) was 0% and the Activity (Xanthium strumarium [20]) was 0%. For the same molecule, the Activity (Beta vulgaris) was 10%, the Activity (Calystegia sepium [21]) was 0% and the Activity (Portulaca oleracea [22]) was 90%. For the same molecule, the Activity (Alopecurus myosuroides) was 0%, the Activity (Portulaca oleracea [23]) was 70% and the Activity (Panicum dichotomiflorum) was 90%. It also gave a solubility [24] of 1.1 µg/mL (≈ 3.08 µM), an Activity (Calystegia sepium [25]) of 10% and an Activity (Ammi majus [26]) of 10%. The Activity (Xanthium strumarium [27]) was 10%, the Activity (Ammi majus [28]) was 0% and the Activity (Portulaca oleracea [29]) was 70%.
